Legend:
[1] = test system: hamsters with cerebellar ataxia; assay: Slant tolerance test in hamsters with cerebellar ataxia; type: in vivo, hamster; conditions: hamster with cerebellar ataxia; agent of Example 1, 0.5 ml/hamster intraperitoneally once a day for 56 days
Text: (§1) Since NK-4 was confirmed to have a neurodegenerative inhibitory action in Experiment 1, hamsters with cerebellar ataxia (cerebellar ataxia is called “cerebellar A” and hamsters with cerebellar ataxia are called “hamsters with cerebellar A”, hereinafter) as a suitable model for human neurodegenerative diseases (e.g., spinal cerebellar degeneration) were subjected to examine the influence of NK-4 administration on their behaviors and brain tissues. Twenty-five hamsters with natural mutation (Nna1 inhibition), which are known to lose Purkinje's cells after three-weeks of age and then induce a spontaneous onset of kinetic motor ataxia after seven-weeks of age (see Akita K. et al., “J. Neurogenetics”, Vol. 21, pp. 19-29, 2007), had been fed at Hayashibara Biochemical Laboratories., Inc., Okayama, Japan, were randomly allocated to the test groups 1 to 5, five heads in each group, as shown in Table 2. Prior to the onset of cerebellar A (at three-weeks of age), PBS was started to administer to the hamsters in the test group 1 at a dose of 10 ml/kg/day. Prior to the onset of cerebellar A (at three-weeks of age), NK-4 was started to be administered to the hamsters in the test groups 2 to 4 at a daily dose of 20 μg/kg, 100 μg/kg or 500 μg/kg. “IGF-1, human, a product name of insulin-like growth factor, commercialized by Assaypro LLC, MO, USA. These administered ingredients were intraperitoneally administered daily to hamsters once a day up to 10-weeks of age. The degree of symptom of cerebellar A and the improvement effect on the symptom by NK-4 were evaluated with an index of improvement in motor coordination of hamsters by conducting once a week the later described rotarod test and the slant tolerance test. At the age of 10-weeks, the hamsters were subjected to counting the falling down frequency and extracted their brains, which were then histologically evaluated. In parallel, the concentration of glutamic acid in the bloods and cerebrospinal fluids (CSF) of the hamsters was assayed. As a test group 6, five normal hamsters, with the same age as the hamsters with cerebellar A used in the test groups 1 to 5, were provided and tested similarly as the hamsters with cerebellar A in such a manner of intraperitoneally administering PBS to them at a dose of 10 ml/kg/day once a day up to 10-weeks of age.
Hamsters were placed on a slope-angle-variable-board while keeping their heads upward, followed by determining the angle for allowing the hamsters to keep staying thereupon for five seconds for use as an endurable-slant-slope-angle test (see Rivlin et al., “J. Neurosurg.”, Vol. 47, pp. 577-581, […]). The initial slope angle was set to 25 degrees and increased by 5 degrees step by step. When a tested hamster in a static condition fell down within five seconds, the slope angle was decreased by one degree step by step, followed by judging the angle that allows the hamster to keep static staying for five seconds, measuring the tolerable slant-slope-angle, and averaging the data for five heads in each group.
(§2) Similarly as in Experiment 2, 130 hamsters with cerebellar ataxia, born within the same week and 3-weeks of age, were randomly divided into 13 groups, consisting of 10 hamsters, respectively. […] The hamsters (10 heads) in the remaining one group were intraperitoneally administered from their age of 3- to 10-weeks with a sterilized 10% maltose solution (pyrogen-free) in an amount of 0.5 ml/hamster (control) once a day for 56 days At the next day after the end of the administration, body weight of each hamster was weighed, followed by performing rotarod test, slope endurance test, and counting of falling down frequency. The types of compounds applied to each group and the results are in Table 25.

[2] = test system: hamsters with cerebellar ataxia; assay: Falling down frequency of hamsters with cerebellar ataxia; type: in vivo, hamster; conditions: hamster with cerebellar ataxia; agent of Example 1, 0.5 ml/hamster intraperitoneally once a day for 56 days
Text: as §1
Hamsters, 10-weeks of age, were respectively housed in a breeding cage. Their falling down frequencies within one minute were counted under a macroscopic observation and the data from five heads in each group were averaged. For reference, the hamsters with cerebellar A used in this experiment are known to increase their falling down frequencies after nine weeks of age.
as §2

PC12-HS cells = assay: Evaluation A: neurocyte (cell)-growth-promoting action, ALAMAR BLUE; type: cell-based, rat; conditions: for Cell survival percentage (%): cell-growth promotion
[3] = test system: ICR mice administered with amyloid β fragment; assay: Degeneration or defect of hippocampal pyramidal cells, mouse administered with amyloid β fragment, agents of Example 1; type: in vivo; conditions: 4-point grade score none (0) to severe (3), average of 10 mice; agent of Example 1, 0.3 ml/head intraperitoneally once a day up to the 8th day
Description: One hundred and thirty ICR mice (commercialized by Charles Liver Laboratories Japan Inc., Kanagawa, Japan) were randomly divided into 13 groups, consisting of 10 mice in each group. Amyloid β fragment, represented by an amino acid sequence of SEQ ID NO: 1, used in Experiment 3 was aged at 37° C. for four days, and administered to the lateral ventricle of each mouse in an amount of 9 nmol/6 μl/mouse (the administration method is referred to “Brain Research”, Vol. 706, pp. 181-193 (1996)). […] The mice (10 heads) in the remaining one group were intraperitoneally administered with a sterilized 10% maltose solution (pyrogen-free) once a day up to the 8th day in an amount of 0.3 ml/mouse (control). On the 8th day after the administration, novel object recognition test (see, Japanese Patent Kokai No. 2008-193941) was performed and the average discrimination index (the ratio of prolonged seeking time for novel object to the total seeking time) as a cognitive function index were shown in Table 26. On the 9th day after the administration, the brain of the mice was anatomically isolated, prepared into tissue samples in conventional manner. Depositions of aggregation of amyloid fragment were observed by staining with Congo red or thioflavin T, and degeneration or defect of hippocampal pyramidal cells concerned with cognitive function. The degeneration or the defect of hippocampal pyramidal cells was evaluated by 4-point grade score, by regarding the condition of the control without administration of amyloid β fragment as “none (O)”, “slight (1)”, “moderate (2)”, and “sever (3)”, and the average scores of 10 mice are shown in Table 20.

SMILES	Endurable-slant-slope-angle (°) [1]	Falling down frequency (count/min) [2]	Action of enhancing cell growth (%) (PC12-HS cells; compound concentration 25 ng/ml)	Action of enhancing cell growth (%) (PC12-HS cells; compound concentration 50 ng/ml)	Action of enhancing cell growth (%) (PC12-HS cells; compound concentration 100 ng/ml)	Action of enhancing cell growth (%) (PC12-HS cells; compound concentration 200 ng/ml)	Degeneration/defluxion of hippocampal pyramidal cell [3]	Action of enhancing cell growth (%) (PC12-HS cells; 100 μl/well of 100 ng/ml test solution, 3 days, control = 100)	Cell survival percentage (%) (PC12-HS cells; final concentration 50 ng/ml)	Cell survival percentage (%) (PC12-HS cells; final concentration 200 ng/ml)	Cell survival percentage (%) (PC12-HS cells; final concentration 800 ng/ml)	Cell survival percentage (%) (PC12-HS cells; no compound = 100%, final concentration 12.5 ng/ml)	optimum concentration for exhibiting cell-growth-promoting action (PC12-HS cells; from Table 9)
CCCCN1C=C/C(=C/C=C(/C=C/c2cc[n+](CCCC)c3ccccc23)c2cc[n+](CCCC)c3ccccc23)c2ccccc21 [NK-26]	53.5 ± 1.3 °	1.0 ± 0.7 count/min	275 ± 19%	357 ± 35%	210 ± 12%	210 ± 12%	1.1	–	–	–	–	–	–
CCCCCCCCCN1C(C)=CS\C1=C/C=C(\C=C\c1scc(C)[n+]1CCCCCCCCC)c1scc(C)[n+]1CCCCCCCCC.[I-].[I-] [NK-393]	53.1 ± 1.5 °	0.9 ± 0.8 count/min	–	–	–	–	1.1	550%	–	–	–	–	–
CCN1/C(=C/C=C(/C=C/c2sc3ccccc3[n+]2CC)c2sc3ccccc3[n+]2CC)Sc2ccccc21.[I-].[I-] [NK-100]	50.3 ± 1.9 °	1.3 ± 0.7 count/min	–	–	–	–	0.9	–	288 ± 19%	202 ± 4%	82 ± 15%	154 ± 156%	50 ng/mL
